Measurements as given in PubChem BioAssay AID248 (DTP/NCI, 2004).
Where “and” joins values, the source holds several entries; their conditions need not be identical. Equal values may be shown once. Inconclusive results and toxic doses are left out.

Test system: L1210 leukemia ip in BDF1 mice, survival T/C
Experiment: NCI In Vivo Anticancer Drug Screen. Data for tumor model L1210 Leukemia (intraperitoneal) in B6D2F1 (BDF1) mice
Conditions: endpoint: mean survival time, higher = longer survival
Summary of the method: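 Tumor cells were implanted, animals were treated, and survival was followed. The result divides the treated measurement by the vehicle-control measurement.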

[1] = dose: 100.0 mg/kg/injection, schedule: Q01DX001 (ip), vehicle: saline
[2] = dose: 200.0 mg/kg/injection, schedule: Q01DX001 (ip), vehicle: saline
[3] = dose: 400.0 mg/kg/injection, schedule: Q01DX001 (ip), vehicle: saline
[4] = dose: 200.0 mg/kg/injection, schedule: Q04DX003 (ip), vehicle: saline with Tween-80

`CSc1cc(C(=O)Nc2ccc(C3=NCCN3)cc2)ccc1C(=O)Nc1ccc(C2=NCCN2)cc1` was tested, and the T/C (dose: 0.5 mg/kg/injection, schedule: Q01DX Z (ip), vehicle: carboxymethylcellulose (CMC)) was 109 % of control, the T/C (dose: 0.62 mg/kg/injection, schedule: Q01DX015 (ip), vehicle: methylcellulose (MC)) was 112 % of control and the T/C (dose: 1.25 mg/kg/injection, schedule: Q01DX015 (ip), vehicle: methylcellulose (MC)) was 108 % of control. For the same compound, the T/C (dose: 3.75 mg/kg/injection, schedule: Q01DX Z (ip), vehicle: carboxymethylcellulose (CMC)) was 203 % of control, the T/C (dose: 7.5 mg/kg/injection, schedule: Q01DX Z (ip), vehicle: carboxymethylcellulose (CMC)) was 231 % of control and the T/C (dose: 10.0 mg/kg/injection, schedule: Q01DX015 (ip), vehicle: methylcellulose (MC)) was 231 % of control. The T/C (dose: 10.0 mg/kg/injection, schedule: Q01DX Z (ip), vehicle: carboxymethylcellulose (CMC)) was 236 % of control, the T/C (dose: 15.0 mg/kg/injection, schedule: Q01DX Z (ip), vehicle: carboxymethylcellulose (CMC)) was 280 % of control and the T/C (dose: 20.0 mg/kg/injection, schedule: Q01DX015 (ip), vehicle: methylcellulose (MC)) was 286 % of control. The T/C (dose: 20.0 mg/kg/injection, schedule: Q01DX Z (ip), vehicle: carboxymethylcellulose (CMC)) was 287 % of control, the T/C (dose: 30.0 mg/kg/injection, schedule: Q01DX Z (ip), vehicle: carboxymethylcellulose (CMC)) was 178 % of control and the T/C (dose: 40.0 mg/kg/injection, schedule: Q01DX015 (ip), vehicle: methylcellulose (MC)) was 221 % of control. The T/C (dose: 40.0 mg/kg/injection, schedule: Q01DX Z (ip), vehicle: carboxymethylcellulose (CMC)) was 168 % of control, the T/C (dose: 50.0 mg/kg/injection, schedule: Q01DX Z (oral), vehicle: carboxymethylcellulose (CMC)) was 102 % of control and the T/C (dose: 100.0 mg/kg/injection, schedule: Q01DX Z (oral), vehicle: carboxymethylcellulose (CMC)) was 100 % of control. The T/C (dose: 150.0 mg/kg/injection, schedule: Q01DX001 (ip), vehicle: methylcellulose (MC)) was 167 % of control, the T/C (dose: 200.0 mg/kg/injection, schedule: Q01DX Z (oral), vehicle: carboxymethylcellulose (CMC)) was 104 % of control and the T/C (dose: 400.0 mg/kg/injection, schedule: Q01DX Z (oral), vehicle: carboxymethylcellulose (CMC)) was 95 % of control.

For `Cc1cnnn1-c1cccc(C(F)(F)F)c1`, the T/C (dose: 25.0 mg/kg/injection, schedule: Q04DX002 (ip), vehicle: Klucel (hydroxypropylcellulose) (HPC)) was 92 % of control, the T/C (dose: 50.0 mg/kg/injection, schedule: Q04DX002 (ip), vehicle: Klucel (hydroxypropylcellulose) (HPC)) was 92 % of control and the T/C (dose: 100.0 mg/kg/injection, schedule: Q04DX002 (ip), vehicle: Klucel (hydroxypropylcellulose) (HPC)) was 99 % of control and 88 % of control.

In the case of `O=C1CC2CC1C(C(=O)O)C2C(=O)O` (stereo not given), the T/C [1] is reported as 98 % of control, the T/C (dose: 100.0 mg/kg/injection, schedule: Q01DX009 (ip), vehicle: saline) is reported as 96 % of control and the T/C [2] is reported as 96 % of control. The T/C (dose: 200.0 mg/kg/injection, schedule: Q01DX009 (ip), vehicle: saline) was 96 % of control, the T/C [3] was 96 % of control and 98 % of control and the T/C (dose: 400.0 mg/kg/injection, schedule: Q01DX009 (ip), vehicle: saline) was 98 % of control.

With `O=C(N/N=C/c1ccco1)c1ccccc1` the T/C (dose: 50.0 mg/kg/injection, schedule: Q01DX009 (ip), vehicle: saline with Tween-80) was 94 % of control and 103 % of control, the T/C (dose: 100.0 mg/kg/injection, schedule: Q01DX001 (ip), vehicle: saline with Tween-80) was 106 % of control and the T/C (dose: 100.0 mg/kg/injection, schedule: Q01DX009 (ip), vehicle: saline with Tween-80) was 100 % of control and 103 % of control. For the same compound, the T/C (dose: 100.0 mg/kg/injection, schedule: Q04DX002 (ip), vehicle: saline with Tween-80) was 96 % of control, the T/C (dose: 100.0 mg/kg/injection, schedule: Q04DX003 (ip), vehicle: saline with Tween-80) was 98 % of control and the T/C (dose: 200.0 mg/kg/injection, schedule: Q01DX001 (ip), vehicle: saline with Tween-80) was 101 % of control. The T/C (dose: 200.0 mg/kg/injection, schedule: Q01DX009 (ip), vehicle: saline with Tween-80) was 103 % of control and 87 % of control, the T/C (dose: 200.0 mg/kg/injection, schedule: Q04DX002 (ip), vehicle: saline with Tween-80) was 97 % of control and the T/C [4] was 105 % of control. The T/C (dose: 400.0 mg/kg/injection, schedule: Q01DX001 (ip), vehicle: saline with Tween-80) was 114 % of control, the T/C (dose: 400.0 mg/kg/injection, schedule: Q04DX002 (ip), vehicle: saline with Tween-80) was 110 % of control and the T/C (dose: 400.0 mg/kg/injection, schedule: Q04DX003 (ip), vehicle: saline with Tween-80) was 103 % of control.

With `COc1ccc(C(=S)N2CCN(c3ccccc3Cl)CC2)cc1` the T/C [1] was 101 % of control, the T/C [2] was 91 % of control and the T/C [3] was 90 % of control.

With `CS(=O)(=O)N(CC(=O)O)Cc1cccnc1` the T/C (dose: 100.0 mg/kg/injection, schedule: Q01DX009 (ip), vehicle: other) was 101 % of control, the T/C (dose: 100.0 mg/kg/injection, schedule: Q04DX003 (ip), vehicle: other) was 106 % of control and the T/C (dose: 200.0 mg/kg/injection, schedule: Q01DX009 (ip), vehicle: other) was 101 % of control. For the same compound, the T/C (dose: 200.0 mg/kg/injection, schedule: Q04DX003 (ip), vehicle: other) was 93 % of control, the T/C (dose: 400.0 mg/kg/injection, schedule: Q01DX009 (ip), vehicle: other) was 105 % of control and the T/C (dose: 400.0 mg/kg/injection, schedule: Q04DX003 (ip), vehicle: other) was 95 % of control.

In the case of `CCSc1ncnc2c1ncn2C1OC(CO)C(O)C1O` (stereo not given), the T/C (dose: 132.0 mg/kg/injection, schedule: Q04DX003 (ip), vehicle: saline with Tween-80) is reported as 116 % of control and the T/C [4] is reported as 124 % of control.
